# Laboratory results: ChEMBL document CHEMBL4800727 (2021)
# Experiments:
# Details in all cases: Compound concentration 10.0 uM
# [1] = biological target: Sodium-dependent noradrenaline transporter (Homo sapiens) (UniProt P23975)
# [2] = biological target: GABA-A receptor; anion channel (Rattus norvegicus) (UniProt O09028+P15431+P18506+P18508+P19969+P20236+P23574+P23576+P28471+P28473+P30191+P62813+P63079+P63138+Q91ZM7+Q9ES14)
# [3] = biological target: 5-hydroxytryptamine receptor 1B (Homo sapiens) (UniProt P28222)
# [4] = biological target: Delta-type opioid receptor (Homo sapiens) (UniProt P41143)
# [5] = biological target: T1, Alpha-2B adrenergic receptor (Homo sapiens) (UniProt P18089)
# T1 sequence (whole entry): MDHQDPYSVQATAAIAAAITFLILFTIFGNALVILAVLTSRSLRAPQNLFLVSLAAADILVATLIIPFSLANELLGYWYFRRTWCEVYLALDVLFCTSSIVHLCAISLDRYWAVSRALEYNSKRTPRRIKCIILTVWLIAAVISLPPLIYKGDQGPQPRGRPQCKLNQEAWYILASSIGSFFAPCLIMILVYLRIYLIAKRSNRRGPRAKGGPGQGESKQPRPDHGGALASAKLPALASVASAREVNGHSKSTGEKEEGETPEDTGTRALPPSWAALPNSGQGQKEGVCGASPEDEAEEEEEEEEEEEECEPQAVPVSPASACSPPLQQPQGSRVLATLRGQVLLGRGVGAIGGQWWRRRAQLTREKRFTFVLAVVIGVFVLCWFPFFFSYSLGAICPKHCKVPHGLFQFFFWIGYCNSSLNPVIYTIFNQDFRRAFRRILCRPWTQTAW
# [6] = biological target: T2, 5-hydroxytryptamine receptor 3A (Homo sapiens) (UniProt P46098)
# T2 sequence (whole entry): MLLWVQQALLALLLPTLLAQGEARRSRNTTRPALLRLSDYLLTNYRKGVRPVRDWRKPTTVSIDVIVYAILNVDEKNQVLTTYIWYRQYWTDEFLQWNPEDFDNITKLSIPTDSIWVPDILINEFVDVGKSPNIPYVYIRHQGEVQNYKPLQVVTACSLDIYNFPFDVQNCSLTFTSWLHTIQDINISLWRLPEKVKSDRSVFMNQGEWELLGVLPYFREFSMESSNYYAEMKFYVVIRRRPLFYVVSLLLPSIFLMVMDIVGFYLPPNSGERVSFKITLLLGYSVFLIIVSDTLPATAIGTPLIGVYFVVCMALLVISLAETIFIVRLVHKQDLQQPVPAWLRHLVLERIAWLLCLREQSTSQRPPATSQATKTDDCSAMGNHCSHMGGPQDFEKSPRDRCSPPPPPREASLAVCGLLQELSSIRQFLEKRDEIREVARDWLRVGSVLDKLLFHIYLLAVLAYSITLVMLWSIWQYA
# [7] = biological target: 5-hydroxytryptamine receptor 1D (Homo sapiens) (UniProt P28221)
# [8] = biological target: 5-hydroxytryptamine receptor 7 (Homo sapiens, UniProt P34969)
# [9] = biological target: T3, Alpha-1B adrenergic receptor (Homo sapiens) (UniProt P35368)
# T3 sequence (whole entry): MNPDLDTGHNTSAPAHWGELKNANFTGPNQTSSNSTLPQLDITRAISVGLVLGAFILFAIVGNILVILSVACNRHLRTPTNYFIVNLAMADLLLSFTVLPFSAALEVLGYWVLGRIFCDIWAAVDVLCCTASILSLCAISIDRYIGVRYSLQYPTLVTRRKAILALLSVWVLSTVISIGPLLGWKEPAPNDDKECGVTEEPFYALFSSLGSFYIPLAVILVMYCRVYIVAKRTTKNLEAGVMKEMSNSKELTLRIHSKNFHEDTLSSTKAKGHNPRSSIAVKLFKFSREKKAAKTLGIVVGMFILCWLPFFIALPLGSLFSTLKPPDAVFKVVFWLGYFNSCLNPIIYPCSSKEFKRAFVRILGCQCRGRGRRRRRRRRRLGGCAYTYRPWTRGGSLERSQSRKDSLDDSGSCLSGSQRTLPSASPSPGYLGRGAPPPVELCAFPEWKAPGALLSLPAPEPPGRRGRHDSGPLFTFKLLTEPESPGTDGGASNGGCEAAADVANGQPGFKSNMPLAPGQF
# [10] = biological target: Beta-2 adrenergic receptor (Homo sapiens) (UniProt P07550)
# [11] = biological target: T4, Muscarinic acetylcholine receptor M1 (Homo sapiens) (UniProt P11229)
# T4 sequence (whole entry): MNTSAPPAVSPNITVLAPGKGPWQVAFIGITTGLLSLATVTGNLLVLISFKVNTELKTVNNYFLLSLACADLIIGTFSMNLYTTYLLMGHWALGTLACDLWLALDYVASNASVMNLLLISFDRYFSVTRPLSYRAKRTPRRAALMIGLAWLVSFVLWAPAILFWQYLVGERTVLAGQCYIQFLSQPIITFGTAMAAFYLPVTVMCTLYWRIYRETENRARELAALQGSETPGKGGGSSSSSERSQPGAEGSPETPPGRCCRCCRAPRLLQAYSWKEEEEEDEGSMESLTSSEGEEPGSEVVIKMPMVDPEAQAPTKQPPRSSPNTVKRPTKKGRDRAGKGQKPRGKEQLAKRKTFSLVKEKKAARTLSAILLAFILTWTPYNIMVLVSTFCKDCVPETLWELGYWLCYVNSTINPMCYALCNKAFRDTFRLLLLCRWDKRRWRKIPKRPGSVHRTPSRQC
# [12] = biological target: Alpha-1A adrenergic receptor (Homo sapiens) (UniProt P35348)
# Sequence of Alpha-1A adrenergic receptor (Homo sapiens) (P35348 whole entry): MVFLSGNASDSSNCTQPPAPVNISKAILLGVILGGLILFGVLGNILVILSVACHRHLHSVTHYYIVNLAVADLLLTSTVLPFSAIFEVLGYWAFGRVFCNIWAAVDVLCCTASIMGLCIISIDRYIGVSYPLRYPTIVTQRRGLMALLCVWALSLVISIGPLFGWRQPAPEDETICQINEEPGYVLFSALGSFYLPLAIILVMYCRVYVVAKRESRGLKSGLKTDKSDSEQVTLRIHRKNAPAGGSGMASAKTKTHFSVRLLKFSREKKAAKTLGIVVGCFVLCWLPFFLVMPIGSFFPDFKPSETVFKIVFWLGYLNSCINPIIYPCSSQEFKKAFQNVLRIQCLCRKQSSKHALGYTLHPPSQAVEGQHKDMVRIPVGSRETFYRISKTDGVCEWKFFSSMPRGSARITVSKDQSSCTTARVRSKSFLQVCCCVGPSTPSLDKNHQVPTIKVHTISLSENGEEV
# Sequence of 5-hydroxytryptamine receptor 7 (P34969 whole entry): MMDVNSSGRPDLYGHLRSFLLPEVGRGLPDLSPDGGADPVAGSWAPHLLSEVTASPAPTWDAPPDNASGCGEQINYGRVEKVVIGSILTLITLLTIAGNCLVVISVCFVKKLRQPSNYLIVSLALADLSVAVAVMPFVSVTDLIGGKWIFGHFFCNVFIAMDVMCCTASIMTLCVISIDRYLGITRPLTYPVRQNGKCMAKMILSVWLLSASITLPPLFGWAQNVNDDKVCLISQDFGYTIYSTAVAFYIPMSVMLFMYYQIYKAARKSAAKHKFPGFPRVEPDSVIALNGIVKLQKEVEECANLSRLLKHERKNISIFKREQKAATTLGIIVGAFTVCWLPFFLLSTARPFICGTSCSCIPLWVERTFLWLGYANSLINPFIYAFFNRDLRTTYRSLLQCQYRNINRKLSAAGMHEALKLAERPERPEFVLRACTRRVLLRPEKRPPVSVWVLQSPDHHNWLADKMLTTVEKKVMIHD
# Sequence of Beta-2 adrenergic receptor (Homo sapiens) (P07550 whole entry, looked up): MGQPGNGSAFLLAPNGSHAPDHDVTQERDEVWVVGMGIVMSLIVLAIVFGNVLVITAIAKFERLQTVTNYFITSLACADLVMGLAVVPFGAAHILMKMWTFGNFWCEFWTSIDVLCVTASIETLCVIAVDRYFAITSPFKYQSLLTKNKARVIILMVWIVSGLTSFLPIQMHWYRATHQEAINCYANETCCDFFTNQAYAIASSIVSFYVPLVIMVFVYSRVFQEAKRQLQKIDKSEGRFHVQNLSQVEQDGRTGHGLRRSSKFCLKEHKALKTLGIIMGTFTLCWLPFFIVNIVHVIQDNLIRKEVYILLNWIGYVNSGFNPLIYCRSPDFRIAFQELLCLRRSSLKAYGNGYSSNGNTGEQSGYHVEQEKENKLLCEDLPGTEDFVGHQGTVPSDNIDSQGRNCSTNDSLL
# Sequence of 5-hydroxytryptamine receptor 1D (Homo sapiens) (P28221 whole entry): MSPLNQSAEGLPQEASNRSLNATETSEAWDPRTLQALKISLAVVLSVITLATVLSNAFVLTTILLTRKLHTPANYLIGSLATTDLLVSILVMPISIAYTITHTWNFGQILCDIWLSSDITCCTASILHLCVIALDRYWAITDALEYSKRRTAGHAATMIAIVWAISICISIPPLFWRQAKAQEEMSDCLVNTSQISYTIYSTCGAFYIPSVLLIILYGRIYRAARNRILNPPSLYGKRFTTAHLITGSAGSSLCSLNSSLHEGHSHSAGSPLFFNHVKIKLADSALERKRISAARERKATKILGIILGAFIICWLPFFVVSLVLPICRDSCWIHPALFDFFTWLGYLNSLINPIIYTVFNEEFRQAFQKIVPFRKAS
# Sequence of 5-hydroxytryptamine receptor 1B (Homo sapiens) (P28222 whole entry): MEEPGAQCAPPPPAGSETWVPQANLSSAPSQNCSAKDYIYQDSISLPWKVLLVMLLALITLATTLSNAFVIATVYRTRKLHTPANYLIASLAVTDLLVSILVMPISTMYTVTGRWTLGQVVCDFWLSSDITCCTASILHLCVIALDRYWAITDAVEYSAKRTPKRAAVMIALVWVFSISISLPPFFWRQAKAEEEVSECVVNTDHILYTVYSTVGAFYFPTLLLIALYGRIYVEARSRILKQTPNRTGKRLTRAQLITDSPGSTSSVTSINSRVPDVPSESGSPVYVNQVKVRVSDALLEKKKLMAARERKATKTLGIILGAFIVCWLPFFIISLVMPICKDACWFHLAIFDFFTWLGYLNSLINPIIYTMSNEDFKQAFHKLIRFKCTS
# Sequence of Sodium-dependent noradrenaline transporter (Homo sapiens) (P23975 whole entry): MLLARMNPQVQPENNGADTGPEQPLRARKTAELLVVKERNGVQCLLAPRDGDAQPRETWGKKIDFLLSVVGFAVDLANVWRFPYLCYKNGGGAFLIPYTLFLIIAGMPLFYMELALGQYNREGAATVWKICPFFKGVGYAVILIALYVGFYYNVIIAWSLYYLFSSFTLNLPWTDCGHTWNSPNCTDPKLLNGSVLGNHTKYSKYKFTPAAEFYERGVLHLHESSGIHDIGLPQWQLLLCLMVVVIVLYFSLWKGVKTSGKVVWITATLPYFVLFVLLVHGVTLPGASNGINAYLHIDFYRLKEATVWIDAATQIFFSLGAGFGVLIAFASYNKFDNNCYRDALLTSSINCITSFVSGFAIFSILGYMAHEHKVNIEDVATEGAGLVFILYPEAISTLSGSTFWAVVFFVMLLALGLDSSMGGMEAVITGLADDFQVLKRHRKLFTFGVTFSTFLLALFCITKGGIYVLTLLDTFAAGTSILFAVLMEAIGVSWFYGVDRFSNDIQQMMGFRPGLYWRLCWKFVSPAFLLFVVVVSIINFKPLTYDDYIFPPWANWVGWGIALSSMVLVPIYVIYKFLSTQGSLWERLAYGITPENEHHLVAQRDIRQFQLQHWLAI
# Sequence of Delta-type opioid receptor (Homo sapiens) (P41143 whole entry): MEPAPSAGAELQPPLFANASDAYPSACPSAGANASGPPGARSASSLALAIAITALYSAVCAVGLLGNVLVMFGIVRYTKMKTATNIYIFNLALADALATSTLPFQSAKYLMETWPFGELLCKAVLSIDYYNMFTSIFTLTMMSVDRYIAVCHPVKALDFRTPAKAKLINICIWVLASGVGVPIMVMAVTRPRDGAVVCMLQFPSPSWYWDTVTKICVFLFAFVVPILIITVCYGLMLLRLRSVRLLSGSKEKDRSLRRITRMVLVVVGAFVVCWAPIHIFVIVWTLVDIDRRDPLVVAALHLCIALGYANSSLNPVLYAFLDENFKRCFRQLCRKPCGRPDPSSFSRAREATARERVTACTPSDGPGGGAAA
SMILES,inhibition [1] [%],inhibition [2] [%],inhibition [3] [%],inhibition [4] [%],inhibition [5] [%],inhibition [6] [%],inhibition [7] [%],inhibition [8] [%],inhibition [9] [%],inhibition [10] [%],inhibition [11] [%],inhibition [12] [%]
c1ccc(C2CCN(c3cnc4c(N5CCOCC5)nccn34)CC2)cc1,17.4,22.2,8.68,2.73,31.4,9.38,1.09,20.2,0.45,8.86,23.7,22.5
COCCc1ccc(-c2c(C)nc3c(N4CCOCC4)ccnn23)cn1 [JNJ-42396302],16,34,-0.76,7.84,78.2,4.69,11.5,96.1,-8.94,-1.12,2.83,23
